Read-outs that look alike come from different tables or passages of the source.
How the values were obtained:
Assay in all cases: selectivity profiling in a panel of 340 wild-type kinases (Reaction Biology Europe)
Format in all cases: binding
340 wild-type kinases [1] = target: T1, 340 wild-type kinases (Homo sapiens, UniProt O00444)
T1 construct: purchased Reaction Biology Europe
T1 sequence (O00444 1-970): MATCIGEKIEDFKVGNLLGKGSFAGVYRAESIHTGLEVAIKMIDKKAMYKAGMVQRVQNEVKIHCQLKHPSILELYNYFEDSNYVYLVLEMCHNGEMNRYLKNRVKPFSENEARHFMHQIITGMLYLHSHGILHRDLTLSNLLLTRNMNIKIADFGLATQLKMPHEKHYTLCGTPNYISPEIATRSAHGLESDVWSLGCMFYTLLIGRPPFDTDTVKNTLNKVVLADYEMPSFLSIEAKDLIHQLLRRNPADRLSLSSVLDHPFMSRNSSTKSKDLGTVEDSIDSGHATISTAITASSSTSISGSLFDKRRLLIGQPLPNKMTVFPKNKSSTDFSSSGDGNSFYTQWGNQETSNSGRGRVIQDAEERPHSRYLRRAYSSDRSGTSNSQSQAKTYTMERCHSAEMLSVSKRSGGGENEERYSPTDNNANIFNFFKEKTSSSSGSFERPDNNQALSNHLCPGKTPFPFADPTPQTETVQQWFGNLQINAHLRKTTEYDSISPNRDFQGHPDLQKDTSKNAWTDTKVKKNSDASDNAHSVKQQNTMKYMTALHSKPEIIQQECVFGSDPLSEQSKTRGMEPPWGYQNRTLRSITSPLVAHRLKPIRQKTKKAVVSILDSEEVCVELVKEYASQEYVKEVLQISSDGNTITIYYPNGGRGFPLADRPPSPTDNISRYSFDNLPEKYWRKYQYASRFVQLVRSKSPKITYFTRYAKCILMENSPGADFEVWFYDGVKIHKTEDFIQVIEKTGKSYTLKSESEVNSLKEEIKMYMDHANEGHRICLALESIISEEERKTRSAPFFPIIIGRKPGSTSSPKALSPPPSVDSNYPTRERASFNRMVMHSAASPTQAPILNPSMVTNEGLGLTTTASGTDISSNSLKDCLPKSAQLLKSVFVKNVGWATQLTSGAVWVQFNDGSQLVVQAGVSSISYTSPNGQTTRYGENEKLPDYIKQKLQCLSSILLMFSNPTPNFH

340 wild-type kinases [2] = target: T2, 340 wild-type kinases (Homo sapiens, UniProt O43293)
T2 construct: purchased Reaction Biology Europe
T2 sequence (O43293 whole entry): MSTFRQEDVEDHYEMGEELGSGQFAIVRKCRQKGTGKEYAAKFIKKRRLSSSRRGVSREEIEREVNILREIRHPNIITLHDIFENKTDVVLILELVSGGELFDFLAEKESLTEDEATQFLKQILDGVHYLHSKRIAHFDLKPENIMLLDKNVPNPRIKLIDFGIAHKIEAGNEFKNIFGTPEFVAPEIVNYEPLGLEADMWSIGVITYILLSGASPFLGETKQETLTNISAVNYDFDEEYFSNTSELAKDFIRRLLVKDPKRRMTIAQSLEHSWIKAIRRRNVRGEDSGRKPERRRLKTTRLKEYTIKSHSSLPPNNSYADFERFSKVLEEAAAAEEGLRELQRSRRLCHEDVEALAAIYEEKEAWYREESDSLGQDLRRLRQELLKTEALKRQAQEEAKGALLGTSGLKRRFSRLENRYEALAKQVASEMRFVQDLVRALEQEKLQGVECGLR

340 wild-type kinases [3] = target: T3, 340 wild-type kinases (Homo sapiens, UniProt O75116)
T3 construct: purchased Reaction Biology Europe

340 wild-type kinases [4] = target: T4, 340 wild-type kinases (Homo sapiens, UniProt O75676)
T4 construct: purchased Reaction Biology Europe
T4 sequence (O75676 whole entry): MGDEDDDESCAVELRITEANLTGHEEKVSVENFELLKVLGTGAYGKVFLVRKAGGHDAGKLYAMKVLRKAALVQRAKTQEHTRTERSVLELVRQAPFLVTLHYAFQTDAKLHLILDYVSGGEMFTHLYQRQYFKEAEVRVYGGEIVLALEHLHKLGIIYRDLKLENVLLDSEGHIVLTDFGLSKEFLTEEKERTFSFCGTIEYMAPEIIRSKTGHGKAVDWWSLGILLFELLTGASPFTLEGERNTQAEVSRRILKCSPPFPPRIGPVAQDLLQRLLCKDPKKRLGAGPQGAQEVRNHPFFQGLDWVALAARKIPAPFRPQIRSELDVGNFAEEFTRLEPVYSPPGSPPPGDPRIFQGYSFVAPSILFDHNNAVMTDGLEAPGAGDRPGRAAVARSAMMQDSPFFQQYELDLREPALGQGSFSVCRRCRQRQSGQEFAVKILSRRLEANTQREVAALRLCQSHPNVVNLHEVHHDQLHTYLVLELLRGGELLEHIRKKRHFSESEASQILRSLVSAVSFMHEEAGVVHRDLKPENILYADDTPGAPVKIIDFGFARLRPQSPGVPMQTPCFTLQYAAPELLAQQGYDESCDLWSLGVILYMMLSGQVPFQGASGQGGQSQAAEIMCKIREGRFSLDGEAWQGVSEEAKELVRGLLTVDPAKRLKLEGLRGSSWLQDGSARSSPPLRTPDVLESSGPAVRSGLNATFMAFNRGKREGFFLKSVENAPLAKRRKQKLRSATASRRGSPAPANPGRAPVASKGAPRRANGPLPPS

340 wild-type kinases [5] = target: T5, 340 wild-type kinases (Homo sapiens, UniProt P22455)
T5 construct: purchased Reaction Biology Europe
T5 sequence (P22455 22-802): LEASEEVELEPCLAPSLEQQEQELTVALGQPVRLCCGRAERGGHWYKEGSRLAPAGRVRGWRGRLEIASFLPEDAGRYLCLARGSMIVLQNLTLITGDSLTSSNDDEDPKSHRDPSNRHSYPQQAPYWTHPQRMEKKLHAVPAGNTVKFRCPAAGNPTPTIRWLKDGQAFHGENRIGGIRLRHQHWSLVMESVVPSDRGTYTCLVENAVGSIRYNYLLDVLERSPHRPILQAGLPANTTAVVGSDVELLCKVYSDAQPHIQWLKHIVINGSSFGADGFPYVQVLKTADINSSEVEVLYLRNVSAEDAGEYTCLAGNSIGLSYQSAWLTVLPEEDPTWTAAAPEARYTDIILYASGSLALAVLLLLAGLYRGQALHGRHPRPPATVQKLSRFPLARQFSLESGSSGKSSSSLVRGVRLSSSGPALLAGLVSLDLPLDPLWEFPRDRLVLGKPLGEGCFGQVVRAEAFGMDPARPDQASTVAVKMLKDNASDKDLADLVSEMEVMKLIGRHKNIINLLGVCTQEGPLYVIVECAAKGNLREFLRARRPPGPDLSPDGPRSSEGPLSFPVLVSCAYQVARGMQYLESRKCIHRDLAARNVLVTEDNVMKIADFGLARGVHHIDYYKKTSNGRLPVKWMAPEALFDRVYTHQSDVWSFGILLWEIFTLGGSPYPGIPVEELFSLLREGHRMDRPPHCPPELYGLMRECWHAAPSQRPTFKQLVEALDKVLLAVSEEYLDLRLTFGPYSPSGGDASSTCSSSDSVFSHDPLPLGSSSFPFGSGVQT

340 wild-type kinases [6] = target: T6, 340 wild-type kinases (Homo sapiens, UniProt P31751)
T6 construct: purchased Reaction Biology Europe
T6 sequence (P31751 whole entry): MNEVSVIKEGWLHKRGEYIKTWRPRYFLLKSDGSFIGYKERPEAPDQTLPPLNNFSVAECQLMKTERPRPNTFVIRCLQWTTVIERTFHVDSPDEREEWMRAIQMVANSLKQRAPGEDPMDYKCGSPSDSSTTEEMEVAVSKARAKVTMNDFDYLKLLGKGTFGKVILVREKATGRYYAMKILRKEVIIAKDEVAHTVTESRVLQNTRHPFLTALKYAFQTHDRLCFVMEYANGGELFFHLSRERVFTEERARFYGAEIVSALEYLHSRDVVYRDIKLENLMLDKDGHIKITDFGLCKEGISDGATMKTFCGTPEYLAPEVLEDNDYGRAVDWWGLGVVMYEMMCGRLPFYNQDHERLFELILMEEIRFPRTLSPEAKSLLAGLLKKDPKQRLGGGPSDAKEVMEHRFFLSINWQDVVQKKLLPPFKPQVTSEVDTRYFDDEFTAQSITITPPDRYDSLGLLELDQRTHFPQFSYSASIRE

340 wild-type kinases [7] = target: T7, 340 wild-type kinases (Homo sapiens, UniProt P49840)
T7 construct: purchased Reaction Biology Europe
T7 sequence (P49840 whole entry): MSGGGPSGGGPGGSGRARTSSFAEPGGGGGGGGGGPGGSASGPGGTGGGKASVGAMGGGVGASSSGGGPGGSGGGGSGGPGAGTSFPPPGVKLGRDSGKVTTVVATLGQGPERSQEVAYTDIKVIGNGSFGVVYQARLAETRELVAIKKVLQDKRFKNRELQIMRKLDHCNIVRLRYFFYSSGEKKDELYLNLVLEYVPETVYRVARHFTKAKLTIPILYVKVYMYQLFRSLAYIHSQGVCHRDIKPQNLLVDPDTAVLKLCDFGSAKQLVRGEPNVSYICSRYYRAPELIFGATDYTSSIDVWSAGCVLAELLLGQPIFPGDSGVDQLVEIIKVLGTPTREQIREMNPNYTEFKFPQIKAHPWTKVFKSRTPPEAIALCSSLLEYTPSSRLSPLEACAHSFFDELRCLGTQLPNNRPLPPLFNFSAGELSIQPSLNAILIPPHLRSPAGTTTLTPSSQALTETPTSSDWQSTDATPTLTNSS

340 wild-type kinases [8] = target: T8, 340 wild-type kinases (Homo sapiens, UniProt P52564, S207D/T211D)
T8 construct: purchased Reaction Biology Europe
T8 sequence (P52564 1-334 S207D/T211D): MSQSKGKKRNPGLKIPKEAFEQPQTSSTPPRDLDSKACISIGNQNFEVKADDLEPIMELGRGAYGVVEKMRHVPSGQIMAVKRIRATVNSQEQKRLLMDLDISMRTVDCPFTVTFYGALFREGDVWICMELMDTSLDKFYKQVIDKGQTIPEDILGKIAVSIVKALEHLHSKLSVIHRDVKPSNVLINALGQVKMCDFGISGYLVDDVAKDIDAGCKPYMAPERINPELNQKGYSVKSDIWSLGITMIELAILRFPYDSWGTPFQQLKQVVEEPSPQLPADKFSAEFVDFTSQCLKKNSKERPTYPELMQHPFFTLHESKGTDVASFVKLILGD

340 wild-type kinases [9] = target: T9, 340 wild-type kinases (Homo sapiens, UniProt Q05513); settings: PKMzeta, read-out: residual activity
T9 construct: purchased Reaction Biology Europe

340 wild-type kinases [10] = target: T10, 340 wild-type kinases (Homo sapiens, UniProt Q13555)
T10 construct: purchased Reaction Biology Europe

340 wild-type kinases [11] = target: T11, 340 wild-type kinases (Homo sapiens, UniProt Q16512)
T11 construct: purchased Reaction Biology Europe
T11 sequence (Q16512 whole entry): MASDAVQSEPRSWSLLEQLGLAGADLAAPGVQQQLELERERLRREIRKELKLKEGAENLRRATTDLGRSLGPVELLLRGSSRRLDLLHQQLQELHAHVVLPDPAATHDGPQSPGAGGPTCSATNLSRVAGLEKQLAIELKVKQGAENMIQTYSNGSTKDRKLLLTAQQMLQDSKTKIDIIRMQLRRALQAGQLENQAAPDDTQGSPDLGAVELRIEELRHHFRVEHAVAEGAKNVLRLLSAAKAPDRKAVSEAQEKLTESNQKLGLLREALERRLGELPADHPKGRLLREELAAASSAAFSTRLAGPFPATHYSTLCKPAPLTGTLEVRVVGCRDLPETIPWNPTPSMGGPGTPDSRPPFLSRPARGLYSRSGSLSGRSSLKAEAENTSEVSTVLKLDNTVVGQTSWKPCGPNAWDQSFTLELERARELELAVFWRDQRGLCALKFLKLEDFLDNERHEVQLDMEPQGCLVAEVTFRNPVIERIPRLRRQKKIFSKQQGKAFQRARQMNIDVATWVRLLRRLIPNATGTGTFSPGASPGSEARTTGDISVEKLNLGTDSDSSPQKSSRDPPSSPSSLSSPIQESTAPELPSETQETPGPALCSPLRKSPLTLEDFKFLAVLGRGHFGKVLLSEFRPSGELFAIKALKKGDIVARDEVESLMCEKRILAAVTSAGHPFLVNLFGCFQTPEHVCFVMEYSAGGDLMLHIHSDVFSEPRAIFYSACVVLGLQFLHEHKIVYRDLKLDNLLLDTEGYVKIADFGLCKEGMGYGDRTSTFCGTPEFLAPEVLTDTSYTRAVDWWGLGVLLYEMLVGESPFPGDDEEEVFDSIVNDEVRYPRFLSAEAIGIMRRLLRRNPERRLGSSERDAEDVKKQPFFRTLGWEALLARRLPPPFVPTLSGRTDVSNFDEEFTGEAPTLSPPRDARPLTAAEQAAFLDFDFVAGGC

340 wild-type kinases [12] = target: T12, 340 wild-type kinases (Homo sapiens, UniProt Q9BQI3)
T12 construct: purchased Reaction Biology Europe
T12 sequence (Q9BQI3 whole entry): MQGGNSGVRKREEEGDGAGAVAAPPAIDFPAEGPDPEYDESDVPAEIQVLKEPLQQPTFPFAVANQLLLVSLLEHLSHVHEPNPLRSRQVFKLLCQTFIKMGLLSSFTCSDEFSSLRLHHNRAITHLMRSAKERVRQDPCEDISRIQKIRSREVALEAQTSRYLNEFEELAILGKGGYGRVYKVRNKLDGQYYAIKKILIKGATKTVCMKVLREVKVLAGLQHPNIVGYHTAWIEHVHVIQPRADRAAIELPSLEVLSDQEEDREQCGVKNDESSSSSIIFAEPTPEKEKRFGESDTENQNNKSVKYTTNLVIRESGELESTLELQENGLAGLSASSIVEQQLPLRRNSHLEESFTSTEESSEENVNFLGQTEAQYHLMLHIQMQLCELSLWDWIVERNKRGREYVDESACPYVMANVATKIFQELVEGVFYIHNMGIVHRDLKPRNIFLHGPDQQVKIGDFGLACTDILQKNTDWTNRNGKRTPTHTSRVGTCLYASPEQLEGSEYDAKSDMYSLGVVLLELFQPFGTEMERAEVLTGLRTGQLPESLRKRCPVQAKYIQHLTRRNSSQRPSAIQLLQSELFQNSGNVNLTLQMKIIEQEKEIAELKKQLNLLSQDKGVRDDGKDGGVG

340 wild-type kinases [13] = target: T13, 340 wild-type kinases (Homo sapiens, UniProt Q9Y6M4)
T13 construct: purchased Reaction Biology Europe
T13 sequence (Q9Y6M4 whole entry): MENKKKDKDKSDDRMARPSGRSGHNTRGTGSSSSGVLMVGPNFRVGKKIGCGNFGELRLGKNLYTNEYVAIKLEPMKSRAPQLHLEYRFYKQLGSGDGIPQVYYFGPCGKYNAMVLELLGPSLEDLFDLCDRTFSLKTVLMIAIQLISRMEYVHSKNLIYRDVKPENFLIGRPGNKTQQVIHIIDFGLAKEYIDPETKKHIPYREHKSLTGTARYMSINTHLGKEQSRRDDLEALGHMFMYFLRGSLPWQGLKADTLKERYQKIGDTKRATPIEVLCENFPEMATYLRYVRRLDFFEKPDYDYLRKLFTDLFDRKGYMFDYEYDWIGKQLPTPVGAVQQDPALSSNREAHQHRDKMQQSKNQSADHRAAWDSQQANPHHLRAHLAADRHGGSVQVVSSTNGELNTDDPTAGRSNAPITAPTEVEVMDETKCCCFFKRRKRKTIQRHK

CNC(=O)c1ccc2c(c1)C(=O)c1ccc(Nc3ccc(F)c(NC(=O)C4CC4)c3)cc1CC2 [Compound 2015]
remaining activity at 0.2 µM (340 wild-type kinases [1]; 0.2 µM 2015, read-out: SAK residual activity): 103% | remaining activity at 1 µM (340 wild-type kinases [1]; 1 µM 2015, read-out: SAK residual activity): 104% | remaining activity at 0.2 µM (340 wild-type kinases [1]; SAK, 0.2 µM, read-out: residual activity): 103% | remaining activity at 1 µM (340 wild-type kinases [1]; SAK, 1 µM, read-out: residual activity): 104% | remaining activity at 0.2 µM (340 wild-type kinases [2]; 0.2 µM 2015, read-out: DAPK3 residual activity): 110% | remaining activity at 1 µM (340 wild-type kinases [2]; 1 µM 2015, read-out: DAPK3 residual activity): 115% | remaining activity at 0.2 µM (340 wild-type kinases [2]; DAPK3, 0.2 µM, read-out: residual activity): 110% | remaining activity at 1 µM (340 wild-type kinases [2]; DAPK3, 1 µM, read-out: residual activity): 115% | remaining activity at 0.2 µM (340 wild-type kinases [3]; 0.2 µM 2015, read-out: ROCK2 residual activity): 89% | remaining activity at 1 µM (340 wild-type kinases [3]; 1 µM 2015, read-out: ROCK2 residual activity): 86.3% | remaining activity at 0.2 µM (340 wild-type kinases [3]; ROCK2, 0.2 µM, read-out: residual activity): 89% | remaining activity at 1 µM (340 wild-type kinases [3]; ROCK2, 1 µM, read-out: residual activity): 86.3% | remaining activity at 0.2 µM (340 wild-type kinases [4]; 0.2 µM 2015, read-out: RPS6KA4 residual activity): 95.3% | remaining activity at 1 µM (340 wild-type kinases [4]; 1 µM 2015, read-out: RPS6KA4 residual activity): 89.4% | remaining activity at 0.2 µM (340 wild-type kinases [4]; RPS6KA4, 0.2 µM, read-out: residual activity): 95.3% | remaining activity at 1 µM (340 wild-type kinases [4]; RPS6KA4, 1 µM, read-out: residual activity): 89.4% | remaining activity at 0.2 µM (340 wild-type kinases [5]; 0.2 µM 2015, read-out: FGFR4 residual activity): 107% | remaining activity at 1 µM (340 wild-type kinases [5]; 1 µM 2015, read-out: FGFR4 residual activity): 95.9% | remaining activity at 0.2 µM (340 wild-type kinases [5]; FGFR4, 0.2 µM, read-out: residual activity): 107% | remaining activity at 1 µM (340 wild-type kinases [5]; FGFR4, 1 µM, read-out: residual activity): 95.9% | remaining activity at 0.2 µM (340 wild-type kinases [6]; 0.2 µM 2015, read-out: AKT2 residual activity): 64.5% | remaining activity at 1 µM (340 wild-type kinases [6]; 1 µM 2015, read-out: AKT2 residual activity): 93% | remaining activity at 0.2 µM (340 wild-type kinases [6]; AKT2, 0.2 µM, read-out: residual activity): 64.5% | remaining activity at 1 µM (340 wild-type kinases [6]; AKT2, 1 µM, read-out: residual activity): 93% | remaining activity at 0.2 µM (340 wild-type kinases [7]; 0.2 µM 2015, read-out: GSK3alpha residual activity): 110% | remaining activity at 1 µM (340 wild-type kinases [7]; 1 µM 2015, read-out: GSK3alpha residual activity): 82.6% | remaining activity at 0.2 µM (340 wild-type kinases [7]; GSK3alpha, 0.2 µM, read-out: residual activity): 110% | remaining activity at 1 µM (340 wild-type kinases [7]; GSK3alpha, 1 µM, read-out: residual activity): 82.6% | remaining activity at 0.2 µM (340 wild-type kinases [8]; 0.2 µM 2015, read-out: MKK6 SDTD residual activity): 83.9% | remaining activity at 1 µM (340 wild-type kinases [8]; 1 µM 2015, read-out: MKK6 SDTD residual activity): 111% | remaining activity at 0.2 µM (340 wild-type kinases [8]; MKK6 SDTD, 0.2 µM, read-out: residual activity): 83.9% | remaining activity at 1 µM (340 wild-type kinases [8]; MKK6 SDTD, 1 µM, read-out: residual activity): 111% | remaining activity at 0.2 µM (340 wild-type kinases [9]; 0.2 µM): 106% | remaining activity at 1 µM (340 wild-type kinases [9]; 1 µM): 102% | remaining activity at 0.2 µM (340 wild-type kinases [10]; 0.2 µM 2015, read-out: CAMK2G residual activity): 99% | remaining activity at 1 µM (340 wild-type kinases [10]; 1 µM 2015, read-out: CAMK2G residual activity): 90.5% | remaining activity at 0.2 µM (340 wild-type kinases [10]; CAMK2G, 0.2 µM, read-out: residual activity): 99% | remaining activity at 1 µM (340 wild-type kinases [10]; CAMK2G, 1 µM, read-out: residual activity): 90.5% | remaining activity at 0.2 µM (340 wild-type kinases [11]; 0.2 µM 2015, read-out: PRK1 residual activity): 101% | remaining activity at 1 µM (340 wild-type kinases [11]; 1 µM 2015, read-out: PRK1 residual activity): 97.6% | remaining activity at 0.2 µM (340 wild-type kinases [11]; PRK1, 0.2 µM, read-out: residual activity): 101% | remaining activity at 1 µM (340 wild-type kinases [11]; PRK1, 1 µM, read-out: residual activity): 97.6% | remaining activity at 0.2 µM (340 wild-type kinases [12]; 0.2 µM 2015, read-out: HRI residual activity): 75% | remaining activity at 1 µM (340 wild-type kinases [12]; 1 µM 2015, read-out: HRI residual activity): 93.7% | remaining activity at 0.2 µM (340 wild-type kinases [12]; HRI, 0.2 µM, read-out: residual activity): 75% | remaining activity at 1 µM (340 wild-type kinases [12]; HRI, 1 µM, read-out: residual activity): 93.7% | remaining activity at 0.2 µM (340 wild-type kinases [13]; 0.2 µM 2015, read-out: CK1gamma3 residual activity): 93.4% | remaining activity at 1 µM (340 wild-type kinases [13]; 1 µM 2015, read-out: CK1gamma3 residual activity): 91% | remaining activity at 0.2 µM (340 wild-type kinases [13]; CK1gamma3, 0.2 µM, read-out: residual activity): 93.4% | remaining activity at 1 µM (340 wild-type kinases [13]; CK1gamma3, 1 µM, read-out: residual activity): 91%
